Experimental findings from patent US9273341B2, “Methods for treatment of bacterial infections” (THE JOHNS HOPKINS UNVIERSITY, priority 2010, dated 2016) are described below.

Converted amounts (≈) assume the structure as drawn. “Also recorded” adds a separate entry of the source.

The test system of assay [1] is M. tuberculosis mutant strain lacking LdtMt2 (ldtMt2::Tn). It is filed as cell-based.
The target of assay [2] is T1, LdtMt2 (Mycobacterium tuberculosis, UniProt O53223).
T1 construct: initiator methionine from the pET2818 ATG codon (N); made in house; host or cells: E. coli BL21(DE3) harboring pREP4GroESL and pET2818 with the ldtMt2 fragment
T1 sequence (O53223 55-408): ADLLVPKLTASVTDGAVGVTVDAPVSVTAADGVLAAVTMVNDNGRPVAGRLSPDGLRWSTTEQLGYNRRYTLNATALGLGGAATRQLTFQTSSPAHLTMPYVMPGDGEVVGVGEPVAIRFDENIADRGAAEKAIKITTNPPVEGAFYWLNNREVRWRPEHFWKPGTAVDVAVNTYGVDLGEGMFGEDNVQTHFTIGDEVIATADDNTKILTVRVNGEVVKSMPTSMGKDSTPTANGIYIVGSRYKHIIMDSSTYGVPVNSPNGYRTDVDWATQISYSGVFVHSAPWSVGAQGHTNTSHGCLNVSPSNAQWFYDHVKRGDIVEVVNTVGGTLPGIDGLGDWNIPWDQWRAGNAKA
It is filed as biochemical, M. tuberculosis.

The target of assay [3] is T1, LdtMt2. It is filed as binding, M. tuberculosis.
Assay [4] has as its system M. tuberculosis lacking LdtMt2 (ldtMt2::Tn). Also on record: species or system Balb/C mice. The settings on record: mouse, in vivo.

By MIC is commonly meant the smallest concentration in the dilution series that meets the test's criterion for growth inhibition. The low end stands for inhibition by little substance, the high end for a need for much substance. `N[C@@H]1CON=C1O` [D-cycloserine] displayed an MIC in assay [1] of 5 µg/mL (≈ 49 µM).

For the compound `CC1(C)S[C@@H]2[C@H](NC(=O)[C@H](N)c3ccccc3)C(=O)N2[C@H]1C(=O)O` [ampicillin], the “concentration up to which LdtMt2 was not inhibited” value at LdtMt2 [2] is listed as > 5,700 μM. Further, at LdtMt2 [3], the “formation of covalent adducts with LdtMt2” value (from here on “formation”) is reported as “Adducts were not detected; also recorded: No adduct was detected”. As to `CO/N=C(\C(=O)N[C@@H]1C(=O)N2C(C(=O)O)=C(CSc3nc(=O)c(=O)[nH]n3C)CS[C@H]12)c1csc(N)n1` [ceftriaxone], on LdtMt2 [2], the “concentration up to which LdtMt2 was not inhibited” value is > 360 µM. For the same compound, the “formation” value at LdtMt2 [3] is given as “Adducts were not detected; also recorded: No adduct was detected”. As for `C[C@@H](O)[C@H]1C(=O)N2C(C(=O)O)=C(S[C@@H]3CN[C@H](C(=O)Nc4cccc(C(=O)O)c4)C3)[C@H](C)[C@H]12` [ertapenem], at LdtMt2 [3], the “formation” value was “formation of covalent adducts”. For `NNC(=O)c1ccncc1` [isoniazid], the “bacterial burden (lung CFU) under treatment” value in assay [4] is on record as “similarly effective”. `C[C@@H](O)[C@H]1C(=O)N2C(C(=O)O)=C(S[C@@H]3CN[C@H](C(=O)N(C)C)C3)[C@H](C)[C@H]12` [meropenem]: the “formation” value at LdtMt2 [3] is reported as “formation of covalent adducts”.
